Tests used:
[1] = tested on: embryos from zebrafish model of DMD; conditions: Li and Amer, PLoSONE, 2015; cited from earlier work
[2] = biological target: skeletal myofibrils (myosin ATPase); test: Skeletal Myofibril ATPase Assay; assay type: biochemical
Procedure, shortened: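 Rates of NADH loss (A340, kinetic read over 45 min) report ADP generation by myofibrillar myosin, coupled through pyruvate kinase and lactate dehydrogenase; pCa buffer at pH 7.0. IC50 fitted by 4-parameter logistic after normalizing to 1% DMSO controls; cardiac myofibrils served for selectivity.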

[3] = biological target: T1, cardiac myofibrils (myosin ATPase); test: Cardiac Myofibril ATPase Assay (counter screen); assay type: biochemical; conditions: myofibrils 1.0 mg/mL, KCl omitted
T1 construct: frozen myofibril pellets obtained from cardiac tissue; from tissue
Procedure, shortened: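 Myosin ATPase rate followed via NADH disappearance at 340 nm, coupled through pyruvate kinase and lactate dehydrogenase, using cardiac myofibril pellets (final 1.0 mg/mL) without KCl. IC50 values reflect rate reduction compared with vehicle-treated wells.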

T1 sequence (P12883 whole entry): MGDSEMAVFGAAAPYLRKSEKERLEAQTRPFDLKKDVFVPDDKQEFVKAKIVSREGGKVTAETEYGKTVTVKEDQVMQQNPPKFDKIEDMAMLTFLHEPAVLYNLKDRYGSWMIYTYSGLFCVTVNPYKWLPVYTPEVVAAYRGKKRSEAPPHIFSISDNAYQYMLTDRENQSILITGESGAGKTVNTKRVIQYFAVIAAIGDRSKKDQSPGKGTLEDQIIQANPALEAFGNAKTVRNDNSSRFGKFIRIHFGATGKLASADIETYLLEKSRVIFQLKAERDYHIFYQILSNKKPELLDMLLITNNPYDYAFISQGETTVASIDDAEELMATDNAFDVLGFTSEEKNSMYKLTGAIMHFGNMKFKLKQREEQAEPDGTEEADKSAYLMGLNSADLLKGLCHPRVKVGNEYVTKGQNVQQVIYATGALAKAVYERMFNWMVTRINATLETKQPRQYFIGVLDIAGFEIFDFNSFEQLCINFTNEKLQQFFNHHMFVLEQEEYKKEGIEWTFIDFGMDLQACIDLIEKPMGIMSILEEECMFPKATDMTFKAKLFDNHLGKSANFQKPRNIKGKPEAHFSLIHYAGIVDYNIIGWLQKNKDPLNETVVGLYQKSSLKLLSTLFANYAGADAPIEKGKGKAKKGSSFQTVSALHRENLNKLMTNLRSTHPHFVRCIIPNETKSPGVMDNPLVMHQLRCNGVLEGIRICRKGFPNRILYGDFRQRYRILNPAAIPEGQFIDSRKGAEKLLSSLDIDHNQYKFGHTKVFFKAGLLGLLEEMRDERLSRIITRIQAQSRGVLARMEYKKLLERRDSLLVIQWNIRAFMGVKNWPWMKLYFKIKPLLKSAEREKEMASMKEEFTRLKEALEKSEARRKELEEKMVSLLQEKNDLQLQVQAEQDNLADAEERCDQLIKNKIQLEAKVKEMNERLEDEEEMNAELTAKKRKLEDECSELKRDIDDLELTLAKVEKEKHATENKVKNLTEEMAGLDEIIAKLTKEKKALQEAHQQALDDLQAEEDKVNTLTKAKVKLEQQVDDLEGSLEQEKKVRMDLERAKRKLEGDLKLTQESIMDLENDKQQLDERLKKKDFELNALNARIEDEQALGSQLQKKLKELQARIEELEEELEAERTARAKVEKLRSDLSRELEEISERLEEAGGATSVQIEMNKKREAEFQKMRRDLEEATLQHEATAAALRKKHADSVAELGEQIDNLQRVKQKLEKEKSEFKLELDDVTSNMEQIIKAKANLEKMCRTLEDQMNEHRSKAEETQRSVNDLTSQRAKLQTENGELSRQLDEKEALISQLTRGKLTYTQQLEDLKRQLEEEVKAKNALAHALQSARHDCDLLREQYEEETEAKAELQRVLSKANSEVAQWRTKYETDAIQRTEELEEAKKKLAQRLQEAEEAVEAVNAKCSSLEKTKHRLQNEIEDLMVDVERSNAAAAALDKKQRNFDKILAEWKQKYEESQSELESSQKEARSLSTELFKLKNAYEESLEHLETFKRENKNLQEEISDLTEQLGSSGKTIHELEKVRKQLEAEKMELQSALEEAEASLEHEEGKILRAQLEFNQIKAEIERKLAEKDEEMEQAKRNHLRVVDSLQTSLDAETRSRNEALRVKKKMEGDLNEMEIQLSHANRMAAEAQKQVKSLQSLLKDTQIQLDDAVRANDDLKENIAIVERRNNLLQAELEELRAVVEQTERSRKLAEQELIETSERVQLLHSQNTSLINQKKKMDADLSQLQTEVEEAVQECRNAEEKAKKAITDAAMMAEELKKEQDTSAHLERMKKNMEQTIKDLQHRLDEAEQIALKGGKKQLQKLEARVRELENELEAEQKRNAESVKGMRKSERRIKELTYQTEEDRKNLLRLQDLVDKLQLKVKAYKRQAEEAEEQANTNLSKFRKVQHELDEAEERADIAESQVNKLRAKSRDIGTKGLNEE
T1 sequence (P08590 whole entry partner): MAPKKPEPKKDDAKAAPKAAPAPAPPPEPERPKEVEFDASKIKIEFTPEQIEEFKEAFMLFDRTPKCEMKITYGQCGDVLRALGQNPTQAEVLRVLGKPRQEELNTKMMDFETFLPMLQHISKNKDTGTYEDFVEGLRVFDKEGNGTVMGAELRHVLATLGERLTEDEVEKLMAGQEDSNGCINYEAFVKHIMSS
T1 sequence (P10916 whole entry partner): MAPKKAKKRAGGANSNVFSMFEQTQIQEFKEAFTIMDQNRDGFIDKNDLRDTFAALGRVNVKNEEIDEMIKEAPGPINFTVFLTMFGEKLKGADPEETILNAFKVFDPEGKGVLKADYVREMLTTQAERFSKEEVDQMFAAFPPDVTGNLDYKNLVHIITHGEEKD

Compound	protection of muscles from pathological muscle derangement [1]	IC50 ([2]; Table 4C)	IC50 ([3]; Table 5C)	IC50 ([2]; Table 4A)	IC50 ([3]; Table 5A)
Cc1ccc(S(=O)(=O)NCc2ccccc2)cc1 [N-benzyl-p-tolyl-sulfonamide (BTS), N-benzyl-p-tolyl-sulfonamide]	protect muscles from pathological muscle derangement				
COc1ccc(-c2ccc(=O)n(CC(=O)NCCC3=CCCCC3)n2)c(F)c1 [IIIb-7, N-(2-(cyclohex-1-en-1-yl)ethyl)-2-(3-(2-fluoro-4-methoxyphenyl)-6-oxopyridazin-1(6H)-yl)acetamide]		< 10 µM	> 100 µM		
COc1ccc(-c2ccc(=O)n(CC(=O)NC3CCCCC3)n2)cc1 [IIIb-41, N-cyclohexyl-2-(3-(4-methoxyphenyl)-6-oxopyridazin-1(6H)-yl)acetamide]		> 100 µM	> 100 µM		
CCNC(=O)Cn1nc(-c2cnc(OCC(F)(F)F)nc2)ccc1=O [Compound I-8, N-ethyl-2-(6-oxo-3-(2-(2,2,2-trifluoroethoxy)pyrimidin-5-yl)pyridazin-1(6H)-yl)acetamide]				< 10 µM	> 100 µM
O=C(Cn1nc(-c2cnc(OCC(F)(F)F)nc2)ccc1=O)NC1CCC1 [Compound I-71, N-cyclobutyl-2-(6-oxo-3-(2-(2,2,2-trifluoroethoxy)pyrimidin-5-yl)pyridazin-1(6H)-yl)acetamide]				< 10 µM	> 100 µM
